Assay results from PMC9319939, “Siccanin Is a Dual-Target Inhibitor of Plasmodium falciparum Mitochondrial Complex II and Complex III” (Pharmaceuticals, 2022).

Key:
[1] = test system: Dd2_048 (PI4K-S743T mutation); assay: Growth inhibition of Dd2_048 (MMV390048-resistant); type: cell-based; conditions: Plasmodium falciparum, read-out: Growth inhibition EC50, 048
Description: (§1) P. falciparum 3D7-yDHODH was prepared and maintained as described previously. P. falciparum Dd2, and Dd2-derived mutant strains were kindly provided by David A. Fidock, and maintained at Nagasaki University essentially as described in reference, except without supplementation with WR99210.
(§2) Synchronized ring-form parasites (0.3% parasitemia) were prepared in complete medium containing different concentration of various compounds (at a fixed final DMSO concentration of 0.1% (v/v)) and distributed to 96-well plates at 100 μL/well. After 72 h of incubation, parasite growth was monitored by the previously described lactate dehydrogenase (PfLDH)-based assay method; plates were read using a SpectraMax® Paradigm spectrophotometer (Molecular Devices, Inc.; San Jose, CA, USA). EC50 values were calculated using Prism® ver.6.01 (GraphPad; San Diego, CA, USA). Values are presented as the means of three independent experiments.

[2] = test system: Dd2_DDD (eEF2-Y186N mutation); assay: Growth inhibition of Dd2_DDD (DDD107498-resistant); type: cell-based; conditions: Plasmodium falciparum, read-out: Growth inhibition EC50, DDD
Description: as §1, §2

DLD-1 cells = assay: Mammalian cell cytotoxicity assay, CCK8, 48 h; type: cell-based; conditions: Homo sapiens
Description: (§3) Human colorectal adenocarcinoma cells (DLD-1) and Human Dermal Fibroblasts (HDF) cells were obtained from Taiho Pharmaceutical Company (Tokyo, Japan). DLD-1 cells were cultured in RPMI 1640 medium supplemented with 10% (v/v) heat-inactivated fetal bovine serum (FBS) (Gibco; San Diego, CA, USA); HDF cells were cultured in DMEM/F12 medium supplemented with 10% (v/v) heat-inactivated FBS. For both lines, cells were grown under 5% CO2 at 37 °C in an ACI-165D CO2 incubator (ASTEC; Fukuoka, Japan).
(§4) DLD-1 and HDF cells, (2.5 × 10^4 cells/mL) in 96-well plates, were cultured for 24 h. The cells then were washed with phosphate-buffered saline (PBS) and the medium was replaced with fresh medium supplemented with 10% (v/v) FBS. Medium containing siccanin at various concentrations was added to the wells and the cells were cultured for another 48 h. Controls were treated with medium containing 1% (v/v) DMSO and 10% (v/v) FBS. Next, the cells were washed with PBS and the medium was replaced with fresh medium supplemented with 10% (v/v) FBS. An aliquot (10 µL) of CCK8 solution (Cell Counting Kit-8; Dojindo Laboratories; Kumamoto, Japan) was added to each well and the plates were incubated for another 2 h, at which point absorbance at 450 nm was monitored using a SpectraMax® Paradigm spectrophotometer. The EC50 values were calculated using Prism® ver.6.01. The selectivity was calculated as the ratio between DLD-1 or HDF versus P. falciparum IC50s.

HDF cells = assay: Mammalian cell cytotoxicity assay, CCK8, 48 h; type: cell-based; conditions: Homo sapiens
Description: as §3, §4

P. falciparum 3D7 strain = assay: Isobologram analysis with atovaquone and siccanin, PfLDH-based; type: cell-based, Plasmodium falciparum
Description: The effect of the combination of atovaquone and siccanin was evaluated using isobologram analysis to evaluate the synergy, additivity, or antagonism between the two compounds [51, 83]. Synchronized ring-form parasites (0.3% parasitemia) were prepared in complete medium containing different concentrations of siccanin and atovaquone (at a fixed final DMSO concentration of 0.2% (v/v)) and distributed to 96-well plates at 100 μL/well. After 72 h of incubation, parasite growth was monitored by the previously described PfLDH-based assay using a SpectraMax® Paradigm spectrophotometer. IC50 values were calculated using Prism® ver.6.01. Data represent the means of three independent experiments, each performed in triplicate. The isobologram analysis was performed as described previously. For each combination assay, IC50s were calculated from each culture of P. falciparum grown in the presence of atovaquone or siccanin alone and in combination of various concentrations of the two compounds. The fractional inhibitory concentration (FIC) value was determined using the following equation: FIC =IC50 of compound in mixture/IC50 of compound alone
The combination index (CI) value was determined using the following equation: CI =IC50 of atovaquone in mixture/IC50 of atovaquone alone+IC50 of siccanin in mixture/IC50 of siccanin alone […]

Cc1cc(O)c2c(c1)O[C@@]1(C)CC[C@H]3C(C)(C)CCC[C@]34CO[C@@H]2[C@H]41 [Siccanin]
EC50 [1]: 13.5 µM | EC50 [2]: 13.1 µM | EC50 (DLD-1 cells; DLD-1, 48 h, read-out: 50% effective concentration (EC50), growth of DLD-1 cells): 34.2 ± 2.73 µM | IC50 (DLD-1 cells; DLD-1 cells, read-out: Siccanin IC50, Mammal, Growth): 34.2 µM | EC50 (HDF cells; HDF, 48 h, read-out: 50% effective concentration (EC50), growth of HDF cells): 16.1 ± 1.21 µM | IC50 (HDF cells; HDF cells, read-out: Siccanin IC50, Mammal, Growth): 16.1 µM | Combination index (P. falciparum 3D7 strain; combination of siccanin and atovaquone, 3D7, 72 h): 1.0 | Combinatory effect with atovaquone (P. falciparum 3D7 strain; isobologram, 3D7): additive effect
